Experimental data published in patent publication US7262318B2, “Substituted heteroaryl- and phenylsulfamoyl compounds” (Pfizer, Inc., priority 2004, dated 2007).

System: transition cows
Assay: Blood non-esterified fatty acid (NEFA) concentrations in transition cows
Type: in vivo, cow
Settings: 0.5 mg/kg every other day from targeted day -7 pre partum and at calving, days 1–8, p<0.10, with the exception of day 5 (p=0.17)
Method: Determination of Chances in Blood Non-esterified Fatty Acid (NEFA) Concentrations and Liver Triglycerides Levels:
Compounds are administered once or several times in the transition period at dose levels predicted to be effective by comparing results of in-vitro receptor affinity tests in laboratory species and pharmacokinetic evaluations in cattle. NEFA levels are determined via standard laboratory methods, for example, using the commercial WAKO NEFA kit (Wako Chemical Co., USA, Dallas, Tex., 994-75409), and liver triglyceride content is determined using the method as described in the literature (J. K. Drackley, J. J. Veenhuizen, M. J. Richard and J. W. Young, J Dairy Sci, 1991, 74, 4254)).
All animals may be obtained from a commercial dairy farm approximately thirty days prior to anticipated calving date. […]
As soon as possible post-calving (˜30 minutes) the cow is transferred to the freestall barn for the next scheduled milking (6:00 hrs and 19:00 hrs). […] Pre and post-calving NEFA samples are analyzed using the WAKO NEFA-C test kit (#994-75409). […] Tissues are transported on ice and stored frozen at −70° F. At the conclusion of the study, samples are analysed of liver triglyceride levels using the method described by Drackley, J. K. et al. (1991, J Dairy Sci (74):4254–4264).

Cc1ccc(S(=O)(=O)Nc2ccc(-c3ccc(OC(F)(F)F)cc3)cc2)cc1C(=O)O [Example T02, 2-Methyl-5-(4′-trifluoromethoxy-biphenyl-4-ylsulfamoyl)-benzoic acid]
serum NEFA levels as compared to control: significantly lower
